This assay deals with Kynurenine/alpha-aminoadipate aminotransferase, mitochondrial (Homo sapiens, UniProt Q8N5Z0). The assay can be described thus: Inhibition Spectra Assay : Formation of kynurenic acid (KYNA) is indirectly assessed by a decrease in light absorbance at 370 nm (OD370) as the L-kynurenine (KYN) substrate is converted by the human KAT II (hKAT II) enzyme into KYNA.
Sequence of Kynurenine/alpha-aminoadipate aminotransferase, mitochondrial (Q8N5Z0 whole entry): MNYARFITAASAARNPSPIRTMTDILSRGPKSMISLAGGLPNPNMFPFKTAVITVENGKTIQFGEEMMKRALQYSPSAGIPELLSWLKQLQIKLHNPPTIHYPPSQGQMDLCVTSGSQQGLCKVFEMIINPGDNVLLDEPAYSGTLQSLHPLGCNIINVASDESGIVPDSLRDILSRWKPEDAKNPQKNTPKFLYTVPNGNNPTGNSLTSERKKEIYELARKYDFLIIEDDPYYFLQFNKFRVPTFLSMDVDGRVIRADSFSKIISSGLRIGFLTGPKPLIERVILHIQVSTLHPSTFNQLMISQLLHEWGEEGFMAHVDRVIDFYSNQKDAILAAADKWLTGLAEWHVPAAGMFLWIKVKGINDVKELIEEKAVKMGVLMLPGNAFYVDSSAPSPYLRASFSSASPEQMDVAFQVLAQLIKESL

Turning to `NC1Cc2nn(-c3ccccc3)cc2N(O)C1=O` (stereo unspecified), the IC50 stood at 85 nM.

By IC50 is commonly meant the concentration at which inhibition is half-maximal. Lower therefore signals inhibition by little substance.
